The target in the experiment is HIV-1 protease (Human immunodeficiency virus type 1 group M subtype B, UniProt P04585). The experiment can be described thus: HIV-1 protease enzyme inhibition, assay protocol of Toth and Marshall. The class given is biochemical.

The Ki is the equilibrium dissociation constant of an inhibitor or competing ligand from its target. Lower therefore signals tighter binding. `COc1ccc2c(c1)OCCCCCCCN(C[C@@H](O)[C@H](Cc1ccccc1)NC(=O)O[C@H]1CO[C@H]3OCC[C@H]31)S2(=O)=O` [Inhibitor 15d] displayed a Ki of 0.08 ± 0.02 nM.
As to `COc1ccc2c(c1)OCCCC/C=C\CN(C[C@@H](O)[C@H](Cc1ccccc1)NC(=O)O[C@H]1CO[C@H]3OCC[C@H]31)S2(=O)=O` [Inhibitor 14e], the Ki amounted to 0.017 ± 0.001 nM.
